The values that follow come from US20190350907A1, “METHODS AND PHARMACEUTICAL COMPOSITIONS FOR REDUCING CD95- MEDIATED CELL MOTILITY” (INSERM (INSTITUT NATIONAL DE LA SANTÉ ET DE LA RECHERCHE …, priority 2017, published 2019).

“And” between values parts separate entries of the source, which are not always exact repeats. Equal entries are not always repeated. Where no end group is shown, it is not given here.

The subject of test [1] is Tfh-dependent B cell activation. The test is described as follows: Tfh-dependent B-cell maturation co-culture (memory B cells with SEB-stimulated Tfh cells, s-CD95L). In kind it is cell-based. The conditions noted are these: preincubation of Tfh cells.
A further test has as its target T1, CD95/FADD interaction (Homo sapiens, UniProt P25445+Q13158).
T1 construct: DD-CD95 (aa 210-303) fused to F2; the death domain of FADD (aa 80-210) (D) fused to F1; expressed in transfected cells; host or cells: HEK293T
T1 sequence (P25445 226-319): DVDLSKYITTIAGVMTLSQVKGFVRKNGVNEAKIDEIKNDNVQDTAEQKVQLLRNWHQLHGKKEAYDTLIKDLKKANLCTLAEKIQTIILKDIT
T1 sequence (Q13158 80-208): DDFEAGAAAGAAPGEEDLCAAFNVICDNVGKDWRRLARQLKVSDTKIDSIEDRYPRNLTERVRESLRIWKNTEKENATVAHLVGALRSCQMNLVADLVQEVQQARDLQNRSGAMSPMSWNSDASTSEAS
The test can be described thus: Renilla luciferase protein-fragment complementation assay (PCA), CD95-DD/FADD-DD. It counts as cell-based. The conditions noted are these: result in words; selectivity control. From the text: FIG. 1. Identification of chemical leads from the Prestwick library inhibiting the CD95/PLCγ1 interaction. A. Schematic representation of the protein-fragment complementation assay used with CD95-CID or -DD fused to F2 and PLCγ1-SH3 or FADD-DD fused to F1 to identify inhibitors from the Prestwick library. The Renilla luciferase enzyme was divided into amino-terminal and carboxy-terminal fragments (yellow domains) and fused to the indicated domains. B. Compounds from the Prestwick library were tested against CD95/PLCγ1 or CD95/FADD PCA. This library allowed us to select 34 hits based on their ability to inhibit CD95/PLCγ1 interaction (≥70% of signal inhibition) without altering CD95/FADD binding (ratio (CD95/PLCγ1 inhibition/CD95/FADD inhibition) ≥2). […] Inhibition of CD95/FADD interaction is also assessed.
A. CID-CD95 (aa 175-210) or DD-CD95 (aa 210-303) fused to F2 were co-transfected into HEK cells with the indicated domains of PLCγ1 (Ca^2+ response) or FADD (apoptosis) fused to F1. […] The inhibition of light emission for the indicated PPIs was assessed in cells incubated for the indicated times in the presence of TAT-CID (25 μM). […] Then, the indicated peptides fused with or without the cell-penetrating domain TAT were incubated at the indicated concentrations for 4 hrs and luminescence was assessed. […]

The test system of test [2] is CD95-mediated Ca2+ signaling pathway in Tfh cells. The test can be described thus: CD95-mediated Ca2+ response in Tfh cells. It counts as cell-based, human. The conditions noted are these: Example 2; signal described for Th17 and circulating Tfh cells.
Another test addresses T2, CD95/PLCγ1 interaction (Homo sapiens, UniProt P19174).
T2 construct: The PLCγ1-SH3 domain (aa 790-851) (C); expressed in transfected cells; host or cells: HEK293T
T2 sequence (P19174 790-851): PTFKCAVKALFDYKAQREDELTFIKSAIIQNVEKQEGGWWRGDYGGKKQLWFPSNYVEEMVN
The test is described as follows: Renilla luciferase protein-fragment complementation assay (PCA), CD95-CID/PLCγ1-SH3. In kind it is cell-based. The following applies: PCA in HEK cells. How it is done: FIG. 1. […] A. Schematic representation of the protein-fragment complementation assay used with CD95-CID or -DD fused to F2 and PLCγ1-SH3 or FADD-DD fused to F1 to identify inhibitors from the Prestwick library. The Renilla luciferase enzyme was divided into amino-terminal and carboxy-terminal fragments (yellow domains) and fused to the indicated domains. B. Compounds from the Prestwick library were tested against CD95/PLCγ1 or CD95/FADD PCA. […] Inhibition of CD95/FADD interaction is also assessed.
Light emission indicates refolding of the luciferase and reconstitution of enzyme activity through protein/protein interactions. […] Data represent means±SD of three independent experiments. […] Then, the indicated peptides fused with or without the cell-penetrating domain TAT were incubated at the indicated concentrations for 4 hrs and luminescence was assessed. Data represent means±SD of three independent experiments. […].
HEK293T cells were electroporated with 5 μg of DNA using BTM-830 electroporation generator (BTX Instrument Division, Harvard Apparatus) with 10 μg of DNA. Transfected cells were cultured for 24 hrs prior to protein complementation assay analyses as previously described (17). Briefly, transfected cells (10^6) were washed, resuspended in 100 μl PBS and deposited in OptiPlate-96 (PerkinElmer, Waltham, Mass., USA). Coelenterazine-h (5 μM, Sigma) was injected to each well and renilla luciferase activity was monitored for the first 10 seconds using Infinite200Pro (Tecan, Männedorf, Switzerland).
A peptide consisting of the cell-penetrating domain of TAT fused to CID (TAT-CID) binds the SH3 domain of PLCγ1 and thereby, prevents PLCγ1/CD95 interaction and the subsequent induction of the Ca^2+ response (16). […] Briefly, the Renilla luciferase enzyme was divided into two fragments (F1 and F2 fragments). […] Interaction of CD95 with PLCγ1 or FADD allows the reconstitution of RLuc and subsequent light emission (FIG. 1A). The chemical Prestwick library was screened against these PCAs (FIG. 1B). […] These molecules are designated CID inhibitors or CIDINH.

In test [3] the test system is lupus-prone mice (MRL Lpr/+). The following applies: repeated injections; cited from earlier work.

With “TAT-CID: peptide consisting of the CID (CD95 amino acids 175 to 210) conjugated to the cell-penetrating domain of TAT (KRKEVQKTCRKHRKENQGSHESPTLNPETVAINLSD; not fully specified (N-terminus); also: conjugated to TAT cell-penetrating domain, site not given here)”, the “effect on Tfh-dependent B cell activation” value in test [1] is recorded as “blocks”. The “effect on CD95/FADD interaction” value in the test with CD95/FADD interaction is given as “failed to alter”. For the same substance, in test [2], the “effect on sCD95L-induced Ca2+ response” value is recorded as “abrogated”. The IC50 in the test with CD95/PLCγ1 interaction (peptides incubated for 4 hours, read-out: IC50, disruption of CD95/PLCγ1 interaction by peptides) was 10.8 µM and 11.5 µM. In the test with CD95/PLCγ1 interaction (TAT-CID 25 μM), the “time course of inhibition of CD95/PLCγ1” value is listed as “increased in a time dependent manner”. In test [3], the “effect on clinical symptoms” value was “alleviate clinical symptoms” and the “effect on endothelial transmigration of Th17 cells in vivo” value is “block”.
